{"source": "ChEMBL document CHEMBL6087398", "about": "“Natural phenol carbamates: Selective BuChE/FAAH dual inhibitors show neuroprotection in an Alzheimer's disease mouse model” (Eur J Med Chem, 2025)", "key": {"[1]": {"target": "Acetylcholinesterase (Electrophorus electricus) (UniProt O42275)", "sequence (O42275 24-633 limits assumed)": "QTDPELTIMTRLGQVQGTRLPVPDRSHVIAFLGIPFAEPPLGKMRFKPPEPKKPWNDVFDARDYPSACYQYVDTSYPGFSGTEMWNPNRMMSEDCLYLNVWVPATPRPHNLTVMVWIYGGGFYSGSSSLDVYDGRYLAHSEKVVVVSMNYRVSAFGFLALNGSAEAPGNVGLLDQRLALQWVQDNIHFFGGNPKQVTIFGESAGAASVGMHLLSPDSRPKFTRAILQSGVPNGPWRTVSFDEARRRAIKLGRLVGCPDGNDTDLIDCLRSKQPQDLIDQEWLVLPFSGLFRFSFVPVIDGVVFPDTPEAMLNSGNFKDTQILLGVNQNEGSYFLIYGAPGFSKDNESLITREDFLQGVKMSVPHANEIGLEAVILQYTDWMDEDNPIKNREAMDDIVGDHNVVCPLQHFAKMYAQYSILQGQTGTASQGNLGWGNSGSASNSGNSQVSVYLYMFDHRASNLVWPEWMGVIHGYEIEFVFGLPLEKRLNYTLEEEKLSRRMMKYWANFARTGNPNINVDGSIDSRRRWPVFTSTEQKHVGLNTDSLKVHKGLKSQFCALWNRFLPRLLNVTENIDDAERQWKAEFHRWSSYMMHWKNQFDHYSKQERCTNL", "experiment": "Inhibition of electric eel AChE using acetylthiocholine iodide as substrate preincubated with enzyme for 20 mins followed by substrate addition and measured after 20 mins by Ellman's method", "set-up": "concentration or dose not given beside the values", "settings": "time 40.0 min"}, "Cholinesterase [2]": {"target": "Cholinesterase (Equus caballus, UniProt P81908)", "sequence (P81908 whole entry)": "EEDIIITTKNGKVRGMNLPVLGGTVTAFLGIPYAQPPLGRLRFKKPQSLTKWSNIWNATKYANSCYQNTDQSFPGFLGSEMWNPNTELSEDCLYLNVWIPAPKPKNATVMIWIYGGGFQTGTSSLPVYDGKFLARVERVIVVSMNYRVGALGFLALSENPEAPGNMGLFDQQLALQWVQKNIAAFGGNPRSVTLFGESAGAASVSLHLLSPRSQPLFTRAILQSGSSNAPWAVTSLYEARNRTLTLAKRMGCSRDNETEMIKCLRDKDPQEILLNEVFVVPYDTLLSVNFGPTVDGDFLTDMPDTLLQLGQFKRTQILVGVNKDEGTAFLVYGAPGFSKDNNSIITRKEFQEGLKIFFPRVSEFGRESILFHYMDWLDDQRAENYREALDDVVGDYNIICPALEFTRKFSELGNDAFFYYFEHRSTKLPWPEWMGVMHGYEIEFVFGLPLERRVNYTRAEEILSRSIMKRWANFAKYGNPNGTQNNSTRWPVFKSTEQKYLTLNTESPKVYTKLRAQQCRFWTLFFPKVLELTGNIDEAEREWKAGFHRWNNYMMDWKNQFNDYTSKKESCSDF", "experiment": "Inhibition of equine BuChE using butyrylthiocholine iodide as substrate preincubated with enzyme for 20 mins followed by substrate addition and measured after 20 mins by Ellman's method"}, "[3]": {"target": "Acetylcholinesterase (Homo sapiens) (UniProt P22303)", "sequence (P22303 whole entry)": "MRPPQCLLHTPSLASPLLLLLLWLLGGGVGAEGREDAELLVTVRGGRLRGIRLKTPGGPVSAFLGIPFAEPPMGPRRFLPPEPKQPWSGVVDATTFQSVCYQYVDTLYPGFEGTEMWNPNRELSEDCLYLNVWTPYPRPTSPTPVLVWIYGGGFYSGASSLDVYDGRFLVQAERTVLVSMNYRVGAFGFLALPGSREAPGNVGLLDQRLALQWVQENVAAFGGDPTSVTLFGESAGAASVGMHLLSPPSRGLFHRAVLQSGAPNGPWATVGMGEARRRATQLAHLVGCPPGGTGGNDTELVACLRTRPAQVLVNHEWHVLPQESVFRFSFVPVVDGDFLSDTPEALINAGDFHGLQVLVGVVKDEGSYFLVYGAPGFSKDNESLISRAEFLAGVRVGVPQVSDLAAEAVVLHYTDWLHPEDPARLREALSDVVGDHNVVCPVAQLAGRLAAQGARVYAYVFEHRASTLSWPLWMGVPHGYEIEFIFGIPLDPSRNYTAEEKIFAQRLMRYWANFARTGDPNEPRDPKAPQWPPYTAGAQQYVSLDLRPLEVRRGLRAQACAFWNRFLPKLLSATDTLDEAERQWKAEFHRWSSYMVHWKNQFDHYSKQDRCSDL", "experiment": "Inhibition of recombinant human AChE using acetylthiocholine iodide as substrate incubated for 5 mins relative to control"}, "[4]": {"target": "T1, Fatty-acid amide hydrolase 1 (Homo sapiens, UniProt O00519)", "T1 sequence (O00519 whole entry)": "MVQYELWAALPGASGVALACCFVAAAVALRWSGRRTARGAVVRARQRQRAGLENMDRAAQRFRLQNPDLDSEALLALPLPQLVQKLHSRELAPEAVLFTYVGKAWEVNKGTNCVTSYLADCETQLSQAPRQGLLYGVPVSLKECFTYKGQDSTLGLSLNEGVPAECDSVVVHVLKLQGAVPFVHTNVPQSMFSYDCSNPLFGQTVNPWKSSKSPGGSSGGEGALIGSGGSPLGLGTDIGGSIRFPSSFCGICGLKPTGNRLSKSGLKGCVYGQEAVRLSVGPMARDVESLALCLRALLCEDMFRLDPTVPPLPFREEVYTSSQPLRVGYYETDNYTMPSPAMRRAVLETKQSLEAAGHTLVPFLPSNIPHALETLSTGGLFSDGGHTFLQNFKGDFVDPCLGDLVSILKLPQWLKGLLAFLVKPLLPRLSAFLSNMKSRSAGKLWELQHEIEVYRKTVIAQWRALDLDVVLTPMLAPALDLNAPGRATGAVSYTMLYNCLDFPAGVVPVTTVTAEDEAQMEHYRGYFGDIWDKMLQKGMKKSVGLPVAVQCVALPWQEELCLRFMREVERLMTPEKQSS", "experiment": "Inhibition of human FAAH using arachidonoyl amide as substrate incubated for 30 mins by fluorescence-based cayman assay"}, "[5]": {"target": "Acetylcholinesterase (Electrophorus electricus) (UniProt O42275)", "experiment": "Inhibition of electric eel AChE using acetylthiocholine iodide as substrate preincubated with enzyme for 20 mins followed by substrate addition and measured after 20 mins by Ellman's method relative to control", "set-up": "concentration or dose not given beside the values", "settings": "time 40.0 min"}, "Cholinesterase [6]": {"target": "T2, Cholinesterase (Homo sapiens, UniProt P06276)", "T2 sequence (P06276 whole entry)": "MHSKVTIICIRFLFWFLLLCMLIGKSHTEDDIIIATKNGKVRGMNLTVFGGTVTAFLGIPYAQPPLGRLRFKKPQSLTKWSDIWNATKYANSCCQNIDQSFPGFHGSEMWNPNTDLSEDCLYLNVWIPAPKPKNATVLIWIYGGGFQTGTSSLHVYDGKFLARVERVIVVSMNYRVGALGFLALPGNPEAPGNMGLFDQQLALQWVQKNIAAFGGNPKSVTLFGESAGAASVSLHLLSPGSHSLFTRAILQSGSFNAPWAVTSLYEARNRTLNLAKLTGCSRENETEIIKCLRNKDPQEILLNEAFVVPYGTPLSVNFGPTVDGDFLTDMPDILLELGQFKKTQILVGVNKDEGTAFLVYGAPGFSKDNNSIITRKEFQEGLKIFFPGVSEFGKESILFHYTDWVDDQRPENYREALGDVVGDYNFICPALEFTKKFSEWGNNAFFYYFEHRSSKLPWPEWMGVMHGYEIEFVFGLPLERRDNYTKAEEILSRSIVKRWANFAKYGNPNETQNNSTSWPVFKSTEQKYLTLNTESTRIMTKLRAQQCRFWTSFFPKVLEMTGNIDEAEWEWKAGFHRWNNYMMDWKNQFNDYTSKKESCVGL", "experiment": "Binding affinity to human BuChE (unknown origin) assessed as decarbamolyation rate at 0.025 to 100 uM incubated for 60 mins", "settings": "dose 0.025-100 µM"}, "Cholinesterase [7]": {"target": "T2, Cholinesterase", "experiment": "Inhibition of human BuChE using butyrylthiocholine iodide as substrate incubated for 5 mins"}, "Cholinesterase [8]": {"target": "T2, Cholinesterase", "experiment": "Binding affinity to human BuChE (unknown origin) assessed as equilibrium dissociation constant at 0.025 to 100 uM incubated for 60 mins"}, "Cholinesterase [9]": {"target": "T2, Cholinesterase", "experiment": "Binding affinity to human BuChE (unknown origin) assessed as carbamolyation rate at 0.025 to 100 uM incubated for 60 mins", "settings": "dose 0.025-100 µM"}, "Cholinesterase [10]": {"target": "T2, Cholinesterase", "experiment": "Binding affinity to human BuChE (unknown origin) assessed as overall carbamolyation rate at 0.025 to 100 uM incubated for 60 mins"}, "L02 [11]": {"test_system": "L02", "experiment": "Cytotoxicity against human L02 cells assessed as reduction in cell viability at 12.5 uM incubated for 24 hrs by MTT assay", "assay_type": "toxicity, cell-based", "settings": "l02, 24 h"}, "L02 [12]": {"test_system": "L02", "experiment": "Cytotoxicity against human L02 cells assessed as reduction in cell viability at 50 uM incubated for 24 hrs by MTT assay", "assay_type": "toxicity, cell-based", "settings": "l02, 24 h"}, "L02 [13]": {"test_system": "L02", "experiment": "Cytotoxicity against human L02 cells assessed as reduction in cell viability at 25 uM incubated for 24 hrs by MTT assay", "assay_type": "toxicity, cell-based", "settings": "l02, 24 h"}, "PC-12 [14]": {"test_system": "PC-12", "experiment": "Neuroprotective activity against H2O2 induced rat PC12 cells assessed as increase in cell viability at 50 uM measured after 24 hrs by MTT assay relative to control", "assay_type": "functional"}, "PC-12 [15]": {"test_system": "PC-12", "experiment": "Neuroprotective activity against H2O2 induced rat PC12 cells assessed as cell viability measured after 24 hrs by MTT assay", "assay_type": "functional, cell-based", "settings": "dose 6.25-50 µM"}, "in vitro": {"experiment": "in vitro", "settings": "PAMPA, pH 7.4", "description": "Permeability of the compound in PBS at pH 7.4 incubated for 18 hrs by PAMPA-BBB assay"}}, "note": "Active and inactive are the calls of the source. The calls are words filed in the database; no cut-off is given here."}
{"compound": "CCN(Cc1ccc(Cl)cc1)C(=O)Oc1cc(OC)ccc1C(C)=O", "values": [{"measurement": "inhibition", "setting": "[1]", "value": "inactive"}, {"measurement": "IC50", "setting": "Cholinesterase [2]", "value": 420, "unit": "nM"}]}
{"compound": "CCN(C)C(=O)Oc1cccc([C@H](C)N(C)C)c1", "note": "[RIVASTIGMINE]", "values": [{"measurement": "inhibition", "setting": "[3]", "value": 4.65, "unit": "%"}, {"measurement": "IC50", "setting": "[4]", "value": 14000, "unit": "nM"}]}
{"compound": "C=CCc1ccc(OC(=O)N(C)Cc2ccccc2)c(OC)c1", "values": [{"measurement": "inhibition", "setting": "[1]", "value": 25, "unit": "%"}, {"measurement": "inhibition", "setting": "[5]", "value": "inactive"}]}
{"compound": "CCN(C)C(=O)Oc1cc(C(C)C)ccc1C", "values": [{"measurement": "inhibition", "setting": "[1]", "value": "inactive"}, {"measurement": "IC50", "setting": "Cholinesterase [2]", "value": 780, "unit": "nM"}]}
{"compound": "O=C(Oc1ccc([N+](=O)[O-])cc1)N1CCN(Cc2cccc(Oc3ccccc3)c2)CC1", "values": [{"measurement": "IC50", "setting": "[4]", "value": 11, "unit": "nM"}]}
{"compound": "Cc1ccc(C(C)C)cc1OC(=O)N(C)Cc1cccc(Cl)c1", "values": [{"measurement": "inhibition", "setting": "[1]", "value": 36, "unit": "%"}, {"measurement": "IC50", "setting": "Cholinesterase [2]", "value": 1130, "unit": "nM"}]}
{"compound": "COc1ccc(C(C)=O)c(OC(=O)N2CCCC2)c1", "values": [{"measurement": "inhibition", "setting": "[1]", "value": 21, "unit": "%"}, {"measurement": "IC50", "setting": "Cholinesterase [2]", "value": 1930, "unit": "nM"}]}
{"compound": "COc1ccc(C(C)=O)c(OC(=O)N2CCc3cc(OC)c(OC)cc3C2)c1", "values": [{"measurement": "inhibition", "setting": "[1]", "value": "inactive"}, {"measurement": "IC50", "setting": "Cholinesterase [2]", "value": 3520, "unit": "nM"}]}
{"compound": "C=CCc1ccc(OC(=O)N2CCCC2)c(OC)c1", "values": [{"measurement": "inhibition", "setting": "[1]", "value": "inactive"}, {"measurement": "IC50", "setting": "Cholinesterase [2]", "value": 2000, "unit": "nM"}]}
{"compound": "COc1ccc(C(C)=O)c(OC(=O)N(C)C)c1", "values": [{"measurement": "inhibition", "setting": "[1]", "value": 8.3, "unit": "%"}, {"measurement": "IC50", "setting": "Cholinesterase [2]", "value": 1640, "unit": "nM"}]}
{"compound": "COc1ccc(C(C)=O)c(OC(=O)N2CCSC2)c1", "values": [{"measurement": "inhibition", "setting": "[1]", "value": 44, "unit": "%"}, {"measurement": "IC50", "setting": "Cholinesterase [2]", "value": 640, "unit": "nM"}]}
{"compound": "COc1ccc(C(C)=O)c(OC(=O)N(C)Cc2cccc(F)c2)c1", "values": [{"measurement": "inhibition", "setting": "[1]", "value": 20, "unit": "%"}, {"measurement": "IC50", "setting": "Cholinesterase [2]", "value": 400, "unit": "nM"}]}
{"compound": "COc1ccc(C(C)=O)c(OC(=O)N(C)Cc2ccccc2F)c1", "values": [{"measurement": "inhibition", "setting": "[1]", "value": "inactive"}, {"measurement": "IC50", "setting": "Cholinesterase [2]", "value": 940, "unit": "nM"}]}
{"compound": "COc1ccc(C(C)=O)c(OC(=O)N2CCCCC2)c1", "values": [{"measurement": "K", "setting": "Cholinesterase [6]", "value": 0.024, "unit": "min⁻¹"}, {"measurement": "inhibition", "setting": "[1]", "value": 6.9, "unit": "%"}, {"measurement": "IC50", "setting": "Cholinesterase [2]", "value": 6, "unit": "nM"}, {"measurement": "inhibition", "setting": "[3]", "value": "inactive"}, {"measurement": "IC50", "setting": "Cholinesterase [7]", "value": 113, "unit": "nM"}, {"measurement": "IC50", "setting": "[4]", "value": 8020, "unit": "nM"}, {"measurement": "Kd", "setting": "Cholinesterase [8]", "value": 300, "unit": "nM"}, {"measurement": "K", "setting": "Cholinesterase [9]", "value": 0.41, "unit": "min⁻¹"}, {"measurement": "Ki", "setting": "Cholinesterase [10]", "value": "0.31 10^-3/uM/min"}, {"measurement": "Activity", "setting": "L02 [11]", "value": "Non-toxic"}, {"measurement": "Activity", "setting": "L02 [12]", "value": 81.4, "unit": "%"}, {"measurement": "Activity", "setting": "L02 [13]", "value": 81.6, "unit": "%"}, {"measurement": "Activity", "setting": "PC-12 [14]", "value": 42, "unit": "%"}, {"measurement": "Activity", "setting": "PC-12 [15]", "value": "Dose-dependent-effect"}, {"measurement": "Papp at 18 h", "setting": "in vitro", "value": 17.5, "unit": "×10⁻⁶ cm/s"}]}
{"compound": "Cc1ccc(C(C)C)cc1OC(=O)N1CCCCC1", "values": [{"measurement": "IC50", "setting": "Cholinesterase [2]", "value": 30, "unit": "nM"}]}
{"compound": "COc1ccc(C(C)=O)c(OC(=O)Nc2ccc(Cl)cc2)c1", "values": [{"measurement": "inhibition", "setting": "[1]", "value": 4.6, "unit": "%"}, {"measurement": "IC50", "setting": "Cholinesterase [2]", "value": 1270, "unit": "nM"}]}
{"compound": "C=CCc1ccc(OC(=O)N2CCc3ccccc3C2)c(OC)c1", "values": [{"measurement": "inhibition", "setting": "[1]", "value": 65, "unit": "%"}, {"measurement": "inhibition", "setting": "[5]", "value": 23, "unit": "%"}]}
{"compound": "C=CCc1ccc(OC(=O)N(C)C)c(OC)c1", "values": [{"measurement": "inhibition", "setting": "[1]", "value": "inactive"}, {"measurement": "inhibition", "setting": "[5]", "value": 69, "unit": "%"}]}
{"compound": "C=CCc1ccc(OC(=O)N2CCCCC2)c(OC)c1", "values": [{"measurement": "inhibition", "setting": "[1]", "value": 42, "unit": "%"}, {"measurement": "IC50", "setting": "Cholinesterase [2]", "value": 310, "unit": "nM"}]}
